Laboratory results from PubChem BioAssay AID248 (DTP/NCI, 2004).
Values joined by “and” are separate entries in the source; they are usually repeats but may differ in a detail not shown here. Identical values can stand only once. Toxic doses and inconclusive results are not listed.

Test system: L1210 leukemia ip in BDF1 mice, survival T/C
Assay: NCI In Vivo Anticancer Drug Screen. Data for tumor model L1210 Leukemia (intraperitoneal) in B6D2F1 (BDF1) mice
Settings: endpoint: mean survival time, higher = longer survival
Summary of the method: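 Transplantable tumor model; survival measured in treated vs vehicle control mice. Value = treated/control.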

[1] = dose: 100.0 mg/kg/injection, schedule: Q04DX002 (ip), vehicle: saline with Tween-80
[2] = dose: 12.5 mg/kg/injection, schedule: Q04DX003 (ip), vehicle: Klucel (hydroxypropylcellulose) (HPC)
[3] = dose: 25.0 mg/kg/injection, schedule: Q04DX003 (ip), vehicle: Klucel (hydroxypropylcellulose) (HPC)
[4] = dose: 50.0 mg/kg/injection, schedule: Q04DX003 (ip), vehicle: Klucel (hydroxypropylcellulose) (HPC)
[5] = dose: 100.0 mg/kg/injection, schedule: Q01DX009 (ip), vehicle: saline with Tween-80
[6] = dose: 100.0 mg/kg/injection, schedule: Q04DX003 (ip), vehicle: saline with Tween-80
[7] = dose: 200.0 mg/kg/injection, schedule: Q01DX009 (ip), vehicle: saline with Tween-80
[8] = dose: 200.0 mg/kg/injection, schedule: Q04DX003 (ip), vehicle: saline with Tween-80
[9] = dose: 100.0 mg/kg/injection, schedule: Q01DX001 (ip), vehicle: saline
[10] = dose: 200.0 mg/kg/injection, schedule: Q01DX001 (ip), vehicle: saline
[11] = dose: 100.0 mg/kg/injection, schedule: Q04DX003 (ip), vehicle: Klucel (hydroxypropylcellulose) (HPC)
[12] = dose: 200.0 mg/kg/injection, schedule: Q04DX003 (ip), vehicle: Klucel (hydroxypropylcellulose) (HPC)
[13] = dose: 400.0 mg/kg/injection, schedule: Q04DX003 (ip), vehicle: saline with Tween-80
[14] = dose: 50.0 mg/kg/injection, schedule: Q01DX001 (ip), vehicle: saline
[15] = dose: 400.0 mg/kg/injection, schedule: Q01DX001 (ip), vehicle: saline
[16] = dose: 100.0 mg/kg/injection, schedule: Q01DX001 (ip), vehicle: Klucel (hydroxypropylcellulose) (HPC)
[17] = dose: 200.0 mg/kg/injection, schedule: Q01DX001 (ip), vehicle: Klucel (hydroxypropylcellulose) (HPC)
[18] = dose: 400.0 mg/kg/injection, schedule: Q01DX001 (ip), vehicle: Klucel (hydroxypropylcellulose) (HPC)
[19] = dose: 100.0 mg/kg/injection, schedule: Q01DX001 (ip), vehicle: carboxymethylcellulose (CMC)
[20] = dose: 200.0 mg/kg/injection, schedule: Q01DX001 (ip), vehicle: carboxymethylcellulose (CMC)
[21] = dose: 400.0 mg/kg/injection, schedule: Q01DX001 (ip), vehicle: carboxymethylcellulose (CMC)
[22] = dose: 50.0 mg/kg/injection, schedule: Q01DX001 (ip), vehicle: carboxymethylcellulose (CMC)

Cc1nc2c(C(N)=O)nc(C)n2nc1C
T/C (dose: 50.0 mg/kg/injection, schedule: Q04DX002 (ip), vehicle: saline with Tween-80): 93 % of control | T/C (dose: 100.0 mg/kg/injection, schedule: Q01DX001 (ip), vehicle: saline with Tween-80): 103 % of control | T/C [1]: 105 % of control and 107 % of control | T/C (dose: 200.0 mg/kg/injection, schedule: Q01DX001 (ip), vehicle: saline with Tween-80): 106 % of control | T/C (dose: 200.0 mg/kg/injection, schedule: Q04DX002 (ip), vehicle: saline with Tween-80): 121 % of control | T/C (dose: 400.0 mg/kg/injection, schedule: Q01DX001 (ip), vehicle: saline with Tween-80): 111 % of control | T/C (dose: 400.0 mg/kg/injection, schedule: Q04DX002 (ip), vehicle: saline with Tween-80): 99 % of control | T/C (dose: 600.0 mg/kg/injection, schedule: Q01DX001 (ip), vehicle: saline with Tween-80): 110 % of control

O=Nc1ccc2cc(O)ccc2c1O
T/C (dose: 1.56 mg/kg/injection, schedule: Q01DX009 (ip), vehicle: Klucel (hydroxypropylcellulose) (HPC)): 96 % of control | T/C (dose: 3.12 mg/kg/injection, schedule: Q01DX009 (ip), vehicle: Klucel (hydroxypropylcellulose) (HPC)): 96 % of control | T/C (dose: 6.25 mg/kg/injection, schedule: Q01DX009 (ip), vehicle: Klucel (hydroxypropylcellulose) (HPC)): 104 % of control | T/C (dose: 12.5 mg/kg/injection, schedule: Q01DX009 (ip), vehicle: Klucel (hydroxypropylcellulose) (HPC)): 101 % of control | T/C [2]: 103 % of control | T/C [3]: 97 % of control | T/C [4]: 100 % of control

CSc1ncc(C#N)c(N)n1
T/C (dose: 50.0 mg/kg/injection, schedule: Q01DX009 (ip), vehicle: saline with Tween-80): 98 % of control | T/C [5]: 93 % of control | T/C [6]: 97 % of control | T/C [7]: 104 % of control | T/C [8]: 94 % of control

O=C(Nc1ccc(C2=NCCN2)cc1)c1ccc(C(=O)Nc2ccc(C3=NCCN3)cc2)c(F)c1
T/C (dose: 2.75 mg/kg/injection, schedule: Q01DX Z (ip), vehicle: carboxymethylcellulose (CMC)): 119 % of control | T/C (dose: 11.0 mg/kg/injection, schedule: Q01DX Z (ip), vehicle: carboxymethylcellulose (CMC)): 122 % of control | T/C (dose: 22.0 mg/kg/injection, schedule: Q01DX Z (ip), vehicle: carboxymethylcellulose (CMC)): 227 % of control | T/C (dose: 31.0 mg/kg/injection, schedule: Q01DX Z (oral), vehicle: carboxymethylcellulose (CMC)): 100 % of control | T/C (dose: 45.0 mg/kg/injection, schedule: Q01DX Z (ip), vehicle: carboxymethylcellulose (CMC)): 291 % of control | T/C (dose: 62.0 mg/kg/injection, schedule: Q01DX Z (oral), vehicle: carboxymethylcellulose (CMC)): 101 % of control | T/C (dose: 90.0 mg/kg/injection, schedule: Q01DX Z (ip), vehicle: carboxymethylcellulose (CMC)): 167 % of control | T/C (dose: 112.0 mg/kg/injection, schedule: Q01DX Z (oral), vehicle: carboxymethylcellulose (CMC)): 105 % of control | T/C (dose: 180.0 mg/kg/injection, schedule: Q01DX Z (ip), vehicle: carboxymethylcellulose (CMC)): 94 % of control | T/C (dose: 225.0 mg/kg/injection, schedule: Q01DX Z (oral), vehicle: carboxymethylcellulose (CMC)): 103 % of control

Cc1cccc(OCCOc2cccc(C)c2)c1
T/C [9]: 98 % of control | T/C [10]: 94 % of control

O=C(NCCCOc1ccc([N+](=O)[O-])cc1)OCc1ccccc1
T/C [11]: 109 % of control | T/C [12]: 107 % of control

COC(=O)C(CSCSC)NC(=O)/C=C\c1ccccc1 (stereo unspecified)
T/C [5]: 88 % of control | T/C [6]: 97 % of control | T/C [7]: 88 % of control | T/C [8]: 97 % of control | T/C (dose: 400.0 mg/kg/injection, schedule: Q01DX009 (ip), vehicle: saline with Tween-80): 96 % of control | T/C [13]: 94 % of control

Cc1nc2ccccc2c(Oc2ccccc2)c1-c1ccccc1
T/C [14]: 102 % of control | T/C [9]: 102 % of control | T/C [10]: 104 % of control | T/C [15]: 96 % of control

CN1CN(c2ccccc2)C2(CCN(CCc3cc4ccccc4o3)CC2)C1=O
T/C [16]: 96 % of control | T/C [17]: 95 % of control | T/C [18]: 101 % of control

CCC[CH2][Ge]([CH2]CCC)[O][Ge]([CH2]CCC)[CH2]CCC
T/C [1]: 87 % of control

O=C(/C(=C\c1ccc(Cl)c(Cl)c1)c1ccccc1)c1ccc(O)cc1
T/C [19]: 90 % of control | T/C [20]: 101 % of control | T/C [21]: 95 % of control

CCC(=O)Nc1ccccc1OC
T/C [11]: 100 % of control | T/C [12]: 115 % of control | T/C (dose: 400.0 mg/kg/injection, schedule: Q04DX003 (ip), vehicle: Klucel (hydroxypropylcellulose) (HPC)): 102 % of control

Cc1ccc(S(=O)(=O)/N=C2\SCc3ccccc32)cc1
T/C (dose: 12.5 mg/kg/injection, schedule: Q01DX009 (ip), vehicle: saline): 108 % of control | T/C (dose: 25.0 mg/kg/injection, schedule: Q01DX009 (ip), vehicle: saline): 105 % of control | T/C (dose: 50.0 mg/kg/injection, schedule: Q01DX009 (ip), vehicle: saline): 94 % of control and 101 % of control | T/C [16]: 94 % of control | T/C [17]: 88 % of control | T/C [18]: 98 % of control

CC(C)=C(C=O)CCC(C)C
T/C [5]: 93 % of control | T/C [6]: 95 % of control | T/C [7]: 88 % of control | T/C [8]: 93 % of control | T/C [13]: 97 % of control

O=C(c1ccccc1)C(Cl)C(=O)c1ccccc1
T/C [2]: 94 % of control | T/C [3]: 115 % of control | T/C [4]: 96 % of control | T/C [16]: 98 % of control | T/C [11]: 100 % of control | T/C [17]: 97 % of control | T/C [18]: 95 % of control

N#Cc1cn(C2OC(CO)C(O)C2O)c2ncnc(Cl)c12 (stereo unspecified)
T/C [9]: 103 % of control | T/C [10]: 104 % of control | T/C [15]: 103 % of control

CSc1ncnc2c1ncn2C1CCCC1
T/C [22]: 116 % of control | T/C [19]: 104 % of control | T/C [20]: 107 % of control

OCC(I)CO
T/C [9]: 106 % of control

COC(=O)c1ccc(SCCCN2CCOCC2)cc1
T/C (dose: 100.0 mg/kg/injection, schedule: Q01DX009 (ip), vehicle: saline): 97 % of control | T/C (dose: 100.0 mg/kg/injection, schedule: Q04DX003 (ip), vehicle: saline): 109 % of control | T/C (dose: 200.0 mg/kg/injection, schedule: Q01DX009 (ip), vehicle: saline): 96 % of control | T/C (dose: 200.0 mg/kg/injection, schedule: Q04DX003 (ip), vehicle: saline): 96 % of control | T/C (dose: 400.0 mg/kg/injection, schedule: Q01DX009 (ip), vehicle: saline): 102 % of control | T/C (dose: 400.0 mg/kg/injection, schedule: Q04DX003 (ip), vehicle: saline): 100 % of control

CCOC(=O)C1CC2(c3ccccc3)C(c3ccccc3)=C(c3ccccc3)C1(c1ccccc1)C2O (stereo unspecified)
T/C [22]: 94 % of control | T/C [19]: 94 % of control | T/C [20]: 103 % of control | T/C [21]: 94 % of control

NC(=O)N=Nc1ccccc1
T/C (dose: 100.0 mg/kg/injection, schedule: Q01DX001 (ip), vehicle: other): 105 % of control | T/C (dose: 200.0 mg/kg/injection, schedule: Q01DX001 (ip), vehicle: other): 91 % of control | T/C (dose: 400.0 mg/kg/injection, schedule: Q01DX001 (ip), vehicle: other): 98 % of control

CC1([N+](=O)[O-])COP(=O)(Nc2ccc(F)cc2)OC1 (stereo unspecified)
T/C [19]: 100 % of control | T/C [20]: 94 % of control

c1ccc(-c2cc(-c3ccccc3)cc(-c3ccccc3)c2)cc1
T/C (dose: 1.56 mg/kg/injection, schedule: Q01DX009 (ip), vehicle: saline): 98 % of control | T/C (dose: 3.12 mg/kg/injection, schedule: Q01DX009 (ip), vehicle: saline): 95 % of control | T/C (dose: 6.25 mg/kg/injection, schedule: Q01DX009 (ip), vehicle: saline): 93 % of control

CC(=O)NC(C)(SC(c1ccccc1)c1ccccc1)C(=O)O (stereo unspecified)
T/C [16]: 100 % of control | T/C [17]: 100 % of control | T/C [18]: 105 % of control

CC(C)(CC(N)=O)C(=O)O
T/C [14]: 102 % of control | T/C [9]: 115 % of control | T/C [10]: 113 % of control | T/C [15]: 110 % of control

Oc1ccccc1C=NC1CCCCC1.Oc1ccccc1C=NC1CCCCC1.[Co+2]
T/C [11]: 100 % of control | T/C [12]: 100 % of control
